Values quoted from earlier work as cited in patent US20160128986A1, “METHODS AND COMPOSITIONS RELATED TO THE USE OF LOW HLB SURFACTANTS IN THE PRODUCTION OF SYNTHETIC NANOCARRIERS COMPRISING A RAPALOG” (Selecta Biosciences, Inc., priority 2014, published 2016).

Conditions: publicly available information

CCCCCCCCCCCCCCCC(=O)O [Palmitic Acid]
HLB of Surfactant: 3.2

CCCCCCCCO[C@@H]1O[C@H](CO)[C@@H](O)[C@H](O)[C@H]1O [octyl β-D-glucopyranoside, Octyl β-D-glucopyranoside]
HLB of Surfactant: 12

Polyethylene glycol hexadecyl ether [Brij 52]
HLB of Surfactant: 5

Polyethylene glycol oleyl ether [Brij 93]
HLB of Surfactant: 4

Polysorbate 80
HLB of Surfactant: 15

Sorbitan monolaurate [SPAN 20]
HLB of Surfactant: 8.6

Sorbitan monooleate [SPAN 80]
HLB of Surfactant: 4.3

Sorbitan monopalmitate [SPAN 40]
HLB of Surfactant: 6.7

Sorbitan stearate [SPAN 60]
HLB of Surfactant: 4.7
